Experiment: mn = molality of the nth substance listed, in mol/kg
Settings: 101 kPa, Liquid, Vibrating tube method

CC[C@H](C)[C@H](NC(=O)CN)C(=O)NCC(=O)O [glycyl-L-isoleucylglycine] + O
Settings | mass density [kg/m3]
288.15 K, m1 = 0.0284 | 1001.07
288.15 K, m1 = 0.03948 | 1001.83
288.15 K, m1 = 0.04918 | 1002.5
288.15 K, m1 = 0.05715 | 1003.04
288.15 K, m1 = 0.06935 | 1003.87
288.15 K, m1 = 0.07955 | 1004.56
288.15 K, m1 = 0.08916 | 1005.21
288.15 K, m1 = 0.1012 | 1006.02
303.15 K, m1 = 0.01893 | 996.925
303.15 K, m1 = 0.0328 | 997.846
303.15 K, m1 = 0.04344 | 998.561
303.15 K, m1 = 0.04827 | 998.872
303.15 K, m1 = 0.05907 | 999.58
303.15 K, m1 = 0.06849 | 1000.21
303.15 K, m1 = 0.07945 | 1000.91
303.15 K, m1 = 0.09989 | 1002.23
313.15 K, m1 = 0.02969 | 994.182
313.15 K, m1 = 0.04028 | 994.873
313.15 K, m1 = 0.05061 | 995.543
313.15 K, m1 = 0.05971 | 996.132
313.15 K, m1 = 0.07966 | 997.418

CC(C)C[C@H](NC(=O)CN)C(=O)NCC(=O)O [glycyl-L-leucylglycine] + O
Settings | mass density [kg/m3]
288.15 K, m1 = 0.03052 | 1001.2
288.15 K, m1 = 0.04107 | 1001.91
288.15 K, m1 = 0.05063 | 1002.57
288.15 K, m1 = 0.06015 | 1003.2
288.15 K, m1 = 0.07034 | 1003.9
288.15 K, m1 = 0.08092 | 1004.6
288.15 K, m1 = 0.09106 | 1005.27
288.15 K, m1 = 0.1008 | 1005.92
298.15 K, m1 = 0.01963 | 998.372
298.15 K, m1 = 0.03198 | 999.201
298.15 K, m1 = 0.04637 | 1000.16
298.15 K, m1 = 0.0606 | 1001.11
298.15 K, m1 = 0.07265 | 1001.9
298.15 K, m1 = 0.08576 | 1002.77
298.15 K, m1 = 0.09698 | 1003.5
303.15 K, m1 = 0.01876 | 996.907
303.15 K, m1 = 0.03847 | 998.204
303.15 K, m1 = 0.04881 | 998.896
303.15 K, m1 = 0.05715 | 999.436
303.15 K, m1 = 0.06905 | 1000.22
303.15 K, m1 = 0.07699 | 1000.73
303.15 K, m1 = 0.08729 | 1001.4
303.15 K, m1 = 0.09709 | 1002.03
313.15 K, m1 = 0.01926 | 993.479
313.15 K, m1 = 0.02873 | 994.105
313.15 K, m1 = 0.04912 | 995.406
313.15 K, m1 = 0.06755 | 996.608
313.15 K, m1 = 0.07763 | 997.232
313.15 K, m1 = 0.0869 | 997.826
313.15 K, m1 = 0.1005 | 998.668

CSCC[C@H](NC(=O)CN)C(=O)NCC(=O)O [glycyl-L-methionylglycine] + O
Settings | mass density [kg/m3]
288.15 K, m1 = 0.02065 | 1000.96
288.15 K, m1 = 0.02481 | 1001.33
288.15 K, m1 = 0.03005 | 1001.79
288.15 K, m1 = 0.04038 | 1002.71
288.15 K, m1 = 0.05024 | 1003.58
288.15 K, m1 = 0.06017 | 1004.46
288.15 K, m1 = 0.07183 | 1005.48
288.15 K, m1 = 0.07978 | 1006.18
288.15 K, m1 = 0.0913 | 1007.18
303.15 K, m1 = 0.03024 | 998.275
303.15 K, m1 = 0.03988 | 999.096
303.15 K, m1 = 0.05998 | 1000.82
303.15 K, m1 = 0.06988 | 1001.65
303.15 K, m1 = 0.07911 | 1002.43
303.15 K, m1 = 0.08988 | 1003.32
303.15 K, m1 = 0.1012 | 1004.27
313.15 K, m1 = 0.0199 | 993.923
313.15 K, m1 = 0.03002 | 994.787
313.15 K, m1 = 0.04003 | 995.629
313.15 K, m1 = 0.05041 | 996.504
313.15 K, m1 = 0.061 | 997.393
313.15 K, m1 = 0.07039 | 998.173
313.15 K, m1 = 0.08051 | 999.015

From the NIST ThermoML archive (doi:10.1016/j.jct.2009.05.011)
